Experimental findings from US7517998B2, “Non nucleoside reverse transcriptase inhibitors” (priority 2004, dated 2009) are described below.

Usually IC50 stands for the concentration that gives 50% inhibition. A high value points to a need for much substance. In general, pIC50 refers to the IC50 on a negative log10 scale, so that one unit is a factor of ten. A higher pIC50 goes with a small IC50.

pIC50: −log10 of the molar value.

The first experiment concerns the target T1, K103NNY181C mutant reverse transcriptase (Human immunodeficiency virus type 1 group M subtype B, UniProt P04585, K690N/Y768C).
T1 construct: mutations that occur in the reverse transcriptase segment of the pol gene
Kind of experiment: Reverse transcriptase enzymatic assay (PicoGreen), K103N/Y181C mutant RT. Format: biochemical, HIV-1. The conditions noted are these: IC50 mut (nM), mutant (K103N/Y181C) reverse transcriptase, enzymatic assay of Example 24. In outline:
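PicoGreen fluorescence (ex 485, em 520 nm) quantified product after EDTA stop. Reaction ran 50 min at 37 °C in pH 7.8 Tris/HCl buffer, 1% DMSO, with poly rC/dG15 template-primer (45/4.5 nM), 3.6 μM dGTP, 2.5 nM enzyme; inhibitor 10 μM–0.508 nM final after 15 min room-temperature pre-incubation.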
For the compound `CC(C)(C)c1ccc(-n2nnnc2SCC(=O)Nc2ccc(NC(=O)Cc3ccccc3C(F)(F)F)cc2Cl)c(Cl)c1` [Compound 7045], the IC50 amounted to 432 nM.

`CC(C)(C)c1ccc(-n2nnnc2SCC(=O)Nc2ccc(NC(=O)Cc3cccnc3)cc2Cl)c(Cl)c1` [Compound 7031] showed an IC50 of 43 nM.

`CC(C)(C)c1ccc(-n2nnnc2SCC(=O)Nc2ccc(NC(=O)Cc3ccccc3)cc2Cl)c(Cl)c1` [Compound 7001] came in with an IC50 of 116 nM.

In the case of `CC(C)(C)c1ccc(-n2nnnc2SCC(=O)Nc2ccc(NC(=O)Cc3ccccc3Cl)cc2Cl)c(Cl)c1` [Compound 7035], the IC50 stood at 100 nM. This IC50 and that of the compound before are within 1.5-fold of each other.

Take `CC(C)(C)c1ccc(-n2nnnc2SCC(=O)Nc2ccc(NC(=O)Cc3cccc[n+]3[O-])cc2Cl)c(Cl)c1` [Compound 7047]: the IC50 is 43.5 nM.

On to `CC(C)(C)c1ccc(-n2nnnc2SCC(=O)Nc2ccc(NC(=O)Cc3cccc([N+](=O)[O-])c3)cc2Cl)c(Cl)c1` [Compound 7017], for which it took 170 nM to reach half-maximal inhibition (IC50).

The same experiment, now with this note: IC50 mut, K103N/Y181C mutant reverse transcriptase, enzymatic assay of Example 24.
`CC(C)(C)c1ccc(-n2nnnc2SCC(=O)Nc2ccc(C#CC3CC3)cc2Cl)c(Cl)c1` [Compound 4032]: the pIC50 was 7.41.

For the compound `CC(C)(C#Cc1ccc(NC(=O)CSc2nnnn2-c2ccc(C3CC3)cc2Cl)c(Cl)c1)C(=O)NS(=O)(=O)c1ccccc1` [Compound 4183], the pIC50 is 7.21. Against the preceding compound, the pIC50 is 0.20 log units lower.

Consider `CC(C)(C#Cc1ccc(NC(=O)CSc2nnnn2-c2cc(C(C)(C)C)cc(Br)c2Cl)c(Cl)c1)NC(=O)CNc1cc[n+]([O-])cc1` [Compound 4225], for which the pIC50 was 6.79.

As to `CC(C)(C#Cc1ccc(NC(=O)CSc2nnnn2-c2ccc(C3CC3)cc2Cl)c(Cl)c1)NCc1nccs1` [Compound 4129], the pIC50 is 7.81.

Regarding `CC(C)(C#Cc1ccc(NC(=O)CSc2nnnn2-c2ccc(C3CC3)cc2Cl)c(Cl)c1)NC(=O)c1csnn1` [Compound 4107], the pIC50 was 7.82.

`CC(C)(C#Cc1ccc(NC(=O)CSc2nnnn2-c2ccc(C3CC3)cc2Cl)c(Cl)c1)NCc1ccccc1O` [Compound 4130] showed a pIC50 of 7.37. This pIC50 lies 0.45 log units lower than the previous one.

On to `CC(C)(C#Cc1ccc(NC(=O)CSc2nnnn2-c2ccc(C(C)(C)C)cc2Cl)c(Cl)c1)CO` [Compound 4016], for which the pIC50 is 7.46.

`CC(C)(C#Cc1ccc(NC(=O)CSc2nnnn2-c2ccc(C3CC3)cc2Cl)c(Cl)c1F)OCCO` [Compound 4169] showed a pIC50 of 8.04.

`O=C(CSc1nnnn1-c1ccc(C2CC2)cc1Cl)Nc1ccc(C#CCCN2CCC(O)CC2)cc1Cl` [Compound 4134] had a pIC50 of 7.55.

Compound `CC(C)(C)c1ccc(-n2nnnc2SCC(=O)Nc2ccc(C#CCCCO)cc2Cl)c(Cl)c1` [Compound 4004] gave a pIC50 of 7.80.

Compound `CC(C)(C#Cc1ccc(NC(=O)CSc2nnnn2-c2cc(Cl)ccc2Cl)c(Cl)c1)NC(=O)c1cc[n+]([O-])cc1` [Compound 4189] had a pIC50 of 7.71.

With `CC(C(=O)O)C(=O)NC(C)(C)C#Cc1ccc(NC(=O)CSc2nnnn2-c2ccc(C3CC3)cc2Cl)c(Cl)c1` (centres unmarked) [Compound 4234], the pIC50 was 7.81.

For the compound `CC(C)(C#Cc1ccc(NC(=O)CSc2nnnn2-c2cc(C3CC3)ccc2Cl)c(Cl)c1F)OCCN1CCNCC1` [Compound 4209], the pIC50 was 7.34.

The compound `CC(C)(C)c1ccc(-n2nnnc2SCC(=O)Nc2ccc(C#CCCC(=O)O)cc2Cl)c(Cl)c1` [Compound 4102] gave a pIC50 of 7.61. This pIC50 is 0.27 log units higher than that of the compound before.

For the compound `CNCCOC(=O)COC(C)(C)C#Cc1ccc(NC(=O)CSc2nnnn2-c2ccc(C(C)(C)C)cc2Cl)c(Cl)c1` [Compound 4035], the pIC50 is 7.25.

In turn, `CC(C)(C#Cc1ccc(NC(=O)CSc2nnnn2-c2ccc(C3CC3)cc2Cl)c(Cl)c1)OCCNC1CCC1` [Compound 4118] had a pIC50 of 7.05. Compared with the last compound, the pIC50 is 0.20 log units lower.

Regarding `CC(C)(C#Cc1ccc(NC(=O)CSc2nnnn2-c2ccc(C(C)(C)C)cc2Cl)c(Cl)c1)OCC(=O)NCc1ccco1` [Compound 4037], the pIC50 was 7.18.

The compound `CN1CCN(C(=O)NC(C)(C)C#Cc2ccc(NC(=O)CSc3nnnn3-c3ccc(C4CC4)cc3Cl)c(Cl)c2)CC1` [Compound 4229] showed a pIC50 of 7.82. This pIC50 is 0.64 log units higher than that of the compound before.

Take `CC(C)(C#Cc1ccc(NC(=O)CSc2nnnn2-c2ccc(C(C)(C)C)cc2Cl)c(Cl)c1)OCC(=O)O` [Compound 4020]: the pIC50 is 7.48.

For the compound `CC(C)(C#Cc1ccc(NC(=O)CSc2nnnn2-c2ccc(C3CC3)cc2Cl)c(Cl)c1)OCCN1CCC1` [Compound 4119], the pIC50 is 6.92.

For the compound `CC(C)(C#Cc1ccc(NC(=O)CSc2nnnn2-c2ccc(C3CC3)cc2Cl)c(Cl)c1F)C(=O)O` [Compound 4100], the pIC50 was 7.74. Compared with the last compound, the pIC50 is 0.82 log units higher.

`CC(C)(C#Cc1ccc(NC(=O)CSc2nnnn2-c2cc(C(F)(F)F)ccc2Cl)c(Cl)c1)C(=O)O` [Compound 4196]: the pIC50 is 6.70.

Turning to `CC(C)(C#Cc1ccc(NC(=O)CSc2nnnn2-c2ccc(C(C)(C)C)cc2Cl)c(Cl)c1)OCC(=O)N1CCOCC1` [Compound 4039], the pIC50 is 7.40.

In turn, `CC(C)(C#Cc1ccc(NC(=O)CSc2nnnn2-c2ccc(C(C)(C)C)cc2Cl)c(Cl)c1)OCC(=O)N1CCCC1` [Compound 4038] showed a pIC50 of 7.12.

The compound `CNC(=O)NC(C)(C)C#Cc1ccc(NC(=O)CSc2nnnn2-c2ccc(C3CC3)cc2Cl)c(Cl)c1` [Compound 4071] had a pIC50 of 8.06.

Take `COC(=O)C(C)(C)C#Cc1ccc(NC(=O)CSc2nnnn2-c2cc(C(F)(F)F)ccc2Cl)c(Cl)c1` [Compound 4077]: the pIC50 was 7.35.

For `CC(C)(C#Cc1ccc(NC(=O)CSc2nnnn2-c2ccc(C3CC3)cc2Cl)c(Cl)c1F)NC(=O)CN1CCNCC1` [Compound 4198], the pIC50 was 7.66.

With `CC(C)(C)c1ccc(-n2nnnc2SCC(=O)Nc2ccc(C#CCCCOC(N)=O)cc2Cl)c(Cl)c1` [Compound 4061], the pIC50 was 7.80.

`CC(C)(C#Cc1ccc(NC(=O)CSc2nnnn2-c2ccc(C3CC3)cc2Cl)c(Cl)c1)OCCOc1ccncc1` [Compound 4167] gave a pIC50 of 7.40.

In turn, `CN1CCN(CC2(C#Cc3ccc(NC(=O)CSc4nnnn4-c4ccc(C5CC5)cc4Cl)c(Cl)c3)CC2)CC1` [Compound 4094] gave a pIC50 of 7.31.

As for `CC(C)(C#Cc1ccc(NC(=O)CSc2nnnn2-c2ccc(C(C)(C)C)cc2Cl)c(Cl)c1)OCC(=O)NCC(=O)O` [Compound 4052], the pIC50 is 7.52.

For `CN(C)C(=O)COC(C)(C)C#Cc1ccc(NC(=O)CSc2nnnn2-c2ccc(C(C)(C)C)cc2Cl)c(Cl)c1` [Compound 4049], the pIC50 was 7.52.

Staying with this experiment, now noted: IC50 mut, mutant reverse transcriptase, enzymatic assay of Example 24.
In turn, `CC(C)(C)c1ccc(-n2nnnc2SCC(=O)Nc2ccc(OCC(=O)NN3CCOCC3)cc2Cl)c(Cl)c1` [Compound 5006] had a pIC50 of 6.43.

`Cc1ccc(-n2nnnc2SCC(=O)Nc2ccc(-c3ccc(CC(N)=O)cc3)cc2Cl)c(Cl)c1` [Compound 2012]: the pIC50 is 7.82.

Compound `O=C(CSc1nnnn1-c1ccc(C2CC2)cc1Cl)Nc1ccc(C(=O)NCCc2cc[n+]([O-])cc2)cc1Cl` [Compound 6035] gave a pIC50 of 7.41.

`O=C(COc1ccc(NC(=O)CSc2nnnn2-c2ccc(C3CC3)cc2Cl)c(Cl)c1)NCCc1ccncc1` [Compound 5036] showed a pIC50 of 6.57.

`Cc1cc(OCC(=O)O)ccc1-c1ccc(NC(=O)CSc2nnnn2-c2ccc(C(C)(C)C)cc2Cl)c(Cl)c1` [Compound 3011] showed a pIC50 of 6.47.

As for `COC(=O)c1ccc(-c2ccc(NC(=O)CSc3nnnn3-c3ccc(C)cc3Cl)c(Cl)c2)cc1` [Compound 2001], the pIC50 was 6.88.

Take `Cc1cc(C(F)(F)F)cc(-n2nnnc2SCC(=O)Nc2ccc(-c3ccc(CC(=O)O)cc3)cc2Cl)c1Cl` [Compound 2044]: the pIC50 was 7.54.

`CN1CCN(S(=O)(=O)c2ccc(NC(=O)CSc3nnnn3-c3ccc(C4CC4)cc3Cl)c(Cl)c2)CC1` [Compound 3036] showed a pIC50 of 7.06.

In turn, `O=C(COc1ccc(NC(=O)CSc2nnnn2-c2ccc(C3CC3)cc2Cl)c(Cl)c1)NCCc1cccc[n+]1[O-]` [Compound 5038] showed a pIC50 of 6.25.

Consider `CC(C)(C)c1ccc(-n2nnnc2SCC(=O)Nc2ccc(C(=O)NCCO)cc2Cl)c(Cl)c1` [Compound 6016], for which the pIC50 was 7.46. This pIC50 lies 1.21 log units higher than the previous one.

For `CC(C)(COc1ccc(NC(=O)CSc2nnnn2-c2ccc(C3CC3)cc2Cl)c(Cl)c1)C(=O)O` [Compound 3046], the pIC50 is 6.98.

Take `Cc1cc(C)c(-n2nnnc2SCC(=O)Nc2ccc(-c3ccc(C(C)(C)C(=O)O)cc3)cc2Cl)c(Cl)c1` [Compound 2025]: the pIC50 was 7.38. Against the preceding compound, the pIC50 is 0.40 log units higher.

`CC(C)(C)c1ccc(-n2nnnc2SCC(=O)Nc2ccc(S(=O)(=O)NCc3ccccc3)cc2Cl)c(Cl)c1` [Compound 3028] showed a pIC50 of 6.36. This pIC50 is 1.02 log units lower than that of the compound before.

In turn, `COC(=O)CN(C)CCOc1ccc(-c2ccc(NC(=O)CSc3nnnn3-c3ccc(C(C)(C)C)cc3Cl)c(Cl)c2)cc1` [Compound 2043] gave a pIC50 of 7.49. Compared with the last compound, the pIC50 is 1.13 log units higher.

`CC(C)(C)c1ccc(-n2nnnc2SCC(=O)Nc2ccc(-c3ccc(OCCN4CCOCC4)cc3)cc2Cl)c(Cl)c1` [Compound 2022]: the pIC50 was 7.38.

With `CC(C)(C)c1ccc(-n2nnnc2SCC(=O)Nc2ccc(OCC(=O)NC(CO)C(=O)O)cc2Cl)c(Cl)c1` (centres unmarked) [Compound 5018], the pIC50 is 7.04.

`CC(C)(C)c1ccc(-n2nnnc2SCC(=O)Nc2ccc(-c3ccc(C(=O)O)s3)cc2Cl)c(Cl)c1` [Compound 3030] showed a pIC50 of 7.55.

On to `CC(C)(C)c1ccc(-n2nnnc2SCC(=O)Nc2ccc(C(=O)NCc3cccnc3)cc2Cl)c(Cl)c1` [Compound 6008], for which the pIC50 is 7.59.

Compound `O=C(CSc1nnnn1-c1ccc(C2CC2)cc1Cl)Nc1ccc(OCC(=O)N2CCC(C(=O)O)CC2)cc1Cl` [Compound 5032] had a pIC50 of 7.29.

`CS(=O)(=O)NC(=O)c1ccc(NC(=O)CSc2nnnn2-c2ccc(C3CC3)cc2Cl)c(Cl)c1` [Compound 6036] gave a pIC50 of 6.84.

As for `Cc1ccc(-n2nncc2SCC(=O)Nc2ccc(-c3ccc(CC(=O)O)cc3)cc2Cl)c(Cl)c1` [Compound 1005], the pIC50 is 6.14.
